{"source": "patent EP0456418B1", "about": "“Treatment of clostridium difficile diarrhoea and pseudomembranous colitis” (KABUSHIKI KAISHA MIYARISAN SEIBUTSU IGAKU KENKYUSHO, priority 1990, dated 1991)", "tested_on": "Clostridium difficile", "experiment": "Recurring Clostridium difficile diarrhoea model induced by CFT in golden hamsters", "format": "in vivo", "key": {"[1]": {"conditions": "B group: six + 14 doses of VCM, 48 hours after termination of vancomycin"}}, "note": "“Also recorded” adds a separate entry of the source."}
{"smiles": "CN[C@H](CC(C)C)C(=O)N[C@H]1C(=O)N[C@@H](CC(N)=O)C(=O)N[C@H]2C(=O)N[C@H]3C(=O)N[C@H](C(=O)N[C@H](C(=O)O)c4cc(O)cc(O)c4-c4cc3ccc4O)[C@H](O)c3ccc(c(Cl)c3)Oc3cc2cc(c3O[C@@H]2O[C@H](CO)[C@@H](O)[C@H](O)[C@H]2O[C@H]2C[C@](C)(N)[C@H](O)[C@H](C)O2)Oc2ccc(cc2Cl)[C@H]1O", "note": "[vancomycin]", "values": [{"measurement": "faecal state compared with A group", "setting": "[1]", "value": "improvement in the faecal state"}, {"measurement": "ratio of Clostridium difficile detection", "setting": "[1]", "value": "one out of five"}, {"measurement": "faecal state", "setting": "six doses of vancomycin", "value": "discernible improvement in the faecal state"}, {"measurement": "culture of Clostridium difficile from faeces", "setting": "six doses of vancomycin (3 days administration), detection limit 400CFu/g faeces", "value": "not so effective as to show negative culture; also recorded: positive culture"}, {"measurement": "culture of Clostridium difficile", "setting": "vancomycin continued for a total of 10 days", "value": "negative culture"}]}
